In assay [1] the target is T1, human vasopressin-1a receptor (hV1aR) (Homo sapiens, UniProt P37288).
T1 construct: host or cells: COS-1
As to the kind of experiment: cell-based.

For assay [2], the system named is zebrafish vasopressin2 receptor (ZF V2R). It counts as cell-based, zebrafish (Danio rerio).
The target of assay [3] is T2, human vasopressin2 receptor (hV2R) (Homo sapiens, UniProt P30518).
T2 construct: host or cells: COS-1
As to the kind of experiment: cell-based.

The target in assay [4] is T3, human vasopressin-1b receptor (hV1bR) (Homo sapiens, UniProt P47901).
T3 construct: host or cells: COS-1
T3 sequence (P47901 1-424): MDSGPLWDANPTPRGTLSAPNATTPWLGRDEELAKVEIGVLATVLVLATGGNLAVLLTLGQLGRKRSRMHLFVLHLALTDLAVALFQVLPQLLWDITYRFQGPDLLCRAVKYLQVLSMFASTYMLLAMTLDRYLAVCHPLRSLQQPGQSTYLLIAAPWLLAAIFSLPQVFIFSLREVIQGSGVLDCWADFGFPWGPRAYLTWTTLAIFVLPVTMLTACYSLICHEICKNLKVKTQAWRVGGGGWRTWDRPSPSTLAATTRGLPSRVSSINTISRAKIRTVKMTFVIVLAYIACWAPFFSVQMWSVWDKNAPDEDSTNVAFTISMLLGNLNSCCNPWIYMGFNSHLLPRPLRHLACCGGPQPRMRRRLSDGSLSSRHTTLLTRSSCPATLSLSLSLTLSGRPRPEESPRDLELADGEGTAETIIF
Nature of the assay: cell-based. In kind it is cell-based.

For assay [5], the target named is zebrafish vasopressin1-a1 receptor (ZF V1a1R). It counts as cell-based, zebrafish (Danio rerio).
Assay [6] concerns the target zebrafish vasopressin1-a2 receptor (ZF V1a2R). In kind it is cell-based, zebrafish (Danio rerio).
The target in assay [7] is T4, human oxytocin receptor (hOTR) (Homo sapiens, UniProt P30559).
T4 construct: host or cells: COS-1
T4 sequence (P30559 1-389): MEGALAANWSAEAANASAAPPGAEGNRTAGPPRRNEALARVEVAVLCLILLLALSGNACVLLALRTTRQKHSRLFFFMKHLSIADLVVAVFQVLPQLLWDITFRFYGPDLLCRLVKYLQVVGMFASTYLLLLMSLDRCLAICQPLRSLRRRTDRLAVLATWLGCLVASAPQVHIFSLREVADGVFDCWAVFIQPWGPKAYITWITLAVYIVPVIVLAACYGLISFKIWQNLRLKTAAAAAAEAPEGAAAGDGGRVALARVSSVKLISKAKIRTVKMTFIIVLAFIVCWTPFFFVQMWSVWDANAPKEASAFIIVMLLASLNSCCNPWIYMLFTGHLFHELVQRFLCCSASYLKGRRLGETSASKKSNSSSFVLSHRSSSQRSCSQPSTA
Nature of the assay: cell-based. In kind it is cell-based.

The target of assay [8] is T5, zebrafish oxytocin/isotocin receptor (ZF oxy/isoR) (Danio rerio, UniProt E4W699).
T5 construct: host or cells: COS-1
T5 sequence (E4W699 1-388): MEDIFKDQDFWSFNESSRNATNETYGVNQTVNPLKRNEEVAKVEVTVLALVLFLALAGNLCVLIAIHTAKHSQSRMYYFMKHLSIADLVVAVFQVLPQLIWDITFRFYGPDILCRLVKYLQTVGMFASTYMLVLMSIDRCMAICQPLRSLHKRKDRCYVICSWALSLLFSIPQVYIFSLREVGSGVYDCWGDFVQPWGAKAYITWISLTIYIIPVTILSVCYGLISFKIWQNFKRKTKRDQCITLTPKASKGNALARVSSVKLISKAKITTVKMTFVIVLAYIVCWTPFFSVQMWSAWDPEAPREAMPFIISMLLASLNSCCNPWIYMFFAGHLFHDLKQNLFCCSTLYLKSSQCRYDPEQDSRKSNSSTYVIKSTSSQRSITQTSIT
Nature of the assay: cell-based. It counts as cell-based.

Read-outs that look alike come from different tables or passages of the source. Residues, ends and D or L forms follow the SMILES beside them.

T2 sequence (P30518 whole entry): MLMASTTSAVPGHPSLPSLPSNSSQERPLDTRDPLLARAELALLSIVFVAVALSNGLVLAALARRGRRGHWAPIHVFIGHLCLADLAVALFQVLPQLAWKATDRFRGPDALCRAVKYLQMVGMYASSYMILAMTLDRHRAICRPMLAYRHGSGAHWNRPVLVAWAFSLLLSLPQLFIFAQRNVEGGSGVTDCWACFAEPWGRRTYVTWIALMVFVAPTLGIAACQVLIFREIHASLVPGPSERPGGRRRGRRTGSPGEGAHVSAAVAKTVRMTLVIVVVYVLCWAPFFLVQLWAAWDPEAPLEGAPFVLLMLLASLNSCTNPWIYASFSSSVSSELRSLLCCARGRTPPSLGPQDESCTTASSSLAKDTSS
T1 sequence (P37288 whole entry): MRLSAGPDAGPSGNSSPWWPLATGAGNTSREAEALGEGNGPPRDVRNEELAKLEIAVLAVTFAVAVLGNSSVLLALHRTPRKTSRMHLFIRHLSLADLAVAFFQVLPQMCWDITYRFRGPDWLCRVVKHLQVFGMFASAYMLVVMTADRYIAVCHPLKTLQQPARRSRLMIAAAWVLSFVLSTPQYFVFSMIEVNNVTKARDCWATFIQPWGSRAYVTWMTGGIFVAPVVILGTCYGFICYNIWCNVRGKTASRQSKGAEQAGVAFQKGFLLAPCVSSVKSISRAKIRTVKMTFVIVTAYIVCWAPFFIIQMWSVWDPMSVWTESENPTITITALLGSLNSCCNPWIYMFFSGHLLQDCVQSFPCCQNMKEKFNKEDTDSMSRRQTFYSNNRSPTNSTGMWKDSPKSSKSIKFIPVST

Take `CC[C@H](C)[C@@H]1NC(=O)[C@H](Cc2ccc(O)cc2)NC(=O)[C@@H](N)CSSC[C@@H](C(=O)N2CCC[C@H]2C(=O)N[C@@H](CCCNC(=N)N)C(=O)NCC(N)=O)NC(=O)[C@H](CC(N)=O)NC(=O)[C@H](CCC(N)=O)NC1=O` [Vasotocin, vasotocin] (HELM PEPTIDE1{C.Y.I.Q.N.C.P.R.G.[am]}$PEPTIDE1,PEPTIDE1,1:R3-6:R3$$$V2.0; N-terminus assumed): the EC50 in assay [1] was 15.9 nM; in assay [2] (read-out: EC50 / affinity at ZF V2R) it was 5000 nM; in assay [2] (read-out: Mean EC50 ZF V2R) it was 5.07 nM; in assay [3], 0.5 nM; in assay [4], 4.26 nM; in assay [5] it was 0.41 nM. The EC50 in assay [6] came to 2.77 nM; in assay [7] it was 1.62 nM; in assay [8], 0.85 nM. Besides, in assay [2], the “Selectivity ZF V2R” value is “hV2R (x28945.5) > ZF V1a1R (x38.8) > ZF oxy (x18.7) > hOTR(x9.8) > ZF V1a2R (x5.7) > hV1bR (x3.7) > ZF V2R (x3.1) > hV1aR”. In addition, the “Selectivity hV2R” value in assay [3] is listed as “hV2R (x28945.5) > ZF V1a1R (x38.8) > ZF oxy (x18.7) > hOTR(x9.8) > ZF V1a2R (x5.7) > hV1bR (x3.7) > ZF V2R (x3.1) > hV1aR”. The “fold more potent on hV2R than on ZF V2R” value in assay [3] is recorded as ~10,000 fold. Also, the “Selectivity hV1bR” value in assay [4] is listed as “hV2R (x28945.5) > ZF V1a1R (x38.8) > ZF oxy (x18.7) > hOTR(x9.8) > ZF V1a2R (x5.7) > hV1bR (x3.7) > ZF V2R (x3.1) > hV1aR”. In addition, in assay [5], the “Selectivity ZF V1a1R” value is “hV2R (x28945.5) > ZF V1a1R (x38.8) > ZF oxy (x18.7) > hOTR(x9.8) > ZF V1a2R (x5.7) > hV1bR (x3.7) > ZF V2R (x3.1) > hV1aR”. Also, in assay [6], the “Selectivity ZF V1a2R” value is given as “hV2R (x28945.5) > ZF V1a1R (x38.8) > ZF oxy (x18.7) > hOTR(x9.8) > ZF V1a2R (x5.7) > hV1bR (x3.7) > ZF V2R (x3.1) > hV1aR”. For the same compound, the “Selectivity hOTR” value in assay [7] is reported as “hV2R (x28945.5) > ZF V1a1R (x38.8) > ZF oxy (x18.7) > hOTR(x9.8) > ZF V1a2R (x5.7) > hV1bR (x3.7) > ZF V2R (x3.1) > hV1aR”. The “Selectivity ZF oxy” value in assay [8] is listed as “hV2R (x28945.5) > ZF V1a1R (x38.8) > ZF oxy (x18.7) > hOTR(x9.8) > ZF V1a2R (x5.7) > hV1bR (x3.7) > ZF V2R (x3.1) > hV1aR”.
